According to patent US9637501B2, “Pyridin-3-yl acetic acid macrocycles as inhibitors of human immunodeficiency virus replication” (priority 2014, dated 2017):
Where two headings read alike, the source gives them in different places.

Key:
[1] = rcm bond, Hoveyda-Grubbs catalyst 2nd generation, 1,2-dichloroethane, 3 steps
[2] = tested on: recombinant NL-RLuc virus (NL4-3 with Renilla Luciferase gene) in MT-2 cells; assay: Inhibition of HIV replication (NL-RLuc virus, luciferase readout in MT-2 cells); assay type: cell-based; details: 5 days of incubation, 10% FBS
Text: Inhibition of HIV Replication:
A recombinant NL-RLuc proviral clone was constructed in which a section of the nef gene from NL4-3 was replaced with the Renilla Luciferase gene. This virus is fully infectious and can undergo multiple cycles of replication in cell culture. In addition, the luciferous reporter provides a simple and easy method for quantitating the extent of virus growth and consequently, the antiviral activity of test compounds. The plasmid pNLRLuc contains the proviral NL-Rluc DNA cloned into pUC18 at the PvuII site. The NL-RLuc virus was prepared by transfection of 293T cells with the plasmid pNLRLuc. Transfections were performed using the LipofectAMINE PLUS kit from Invitrogen (Carlsbad, Calif.) according to the manufacturer and the virus generated was titered in MT-2 cells. For susceptibility analyses, the titrated virus was used to infect MT-2 cells in the presence of compound, and after 5 days of incubation, cells were processed and quantitated for virus growth by the amount of expressed luciferase. Assay media was RPMI 1640 supplemented with 10% heat inactivated fetal bovine serum (FBS), 100 units/ml penicillin G/100 units/ml streptomycin, 10 mM HEPES buffer pH 7.55 and 2 mM L-glutamine. The results from at least 2 experiments were used to calculate the EC50 values. Luciferase was quantitated using the Dual Luciferase kit from Promega (Madison, Wis.). Susceptibility of viruses to compounds was determined by incubation in the presence of serial dilutions of the compound. The 50% effective concentration (EC50) was calculated by using the exponential form of the median effect equation where (Fa)=1/[1+(ED50/drug conc.)^m] (Johnson V A, Byington R T. Infectivity Assay. In Techniques in HIV Research. ed. Aldovini A, Walker B D. 71-76. New York: Stockton Press. 1990).

Compound: Cc1nc(C)c([C@H](OC(C)(C)C)C(=O)O)c2c1-c1ccc(cc1)OC(c1ccc(Cl)cc1)CCCCOC1(C)CCN2CC1 (stereo partly shown)
- ring closure, yield of all isomers ([1]; from C=CCOC1(C)CCN(c2c(-c3ccc(OC(CC=C)c4ccc(Cl)cc4)cc3)c(C)nc(C)c2[C@H](OC(C)(C)C)C(=O)OCC)CC1, 6.25 mM, 70.0 °C, 0.5 h): 59.1%

Compound: Cc1nc(C)c([C@H](OC(C)(C)C)C(=O)O)c2c1-c1ccc(cc1)OC(c1ccccc1)CCCCOC1(C)CCN2CC1 (stereo partly shown)
- ring closure, yield of all isomers ([1]; from C=CCOC1(C)CCN(c2c(-c3ccc(OC(CC=C)c4ccccc4)cc3)c(C)nc(C)c2[C@H](OC(C)(C)C)C(=O)OCC)CC1, 70.0 °C, 1.0 h): 63.8%

Compound: Cc1nc(C)c([C@H](OC(C)(C)C)C(=O)O)c2c1-c1ccc(cc1)OC(c1ccccc1)CCCCOC1(C)CCN2CC1 (single isomer, unassigned) [Example 3]
- EC50 [2]: 0.854 µM

Compound: Cc1nc(C)c([C@H](OC(C)(C)C)C(=O)O)c2c1-c1ccc(cc1)OC(c1ccccc1)CCCCOC1(C)CCN2CC1 (single isomer, unassigned) [Example 4]
- EC50 [2]: 0.349 µM

Compound: Cc1nc(C)c([C@H](OC(C)(C)C)C(=O)O)c2c1-c1ccc(cc1)OC(c1ccc(Cl)cc1)CCCCOC1(C)CCN2CC1 (single isomer, unassigned) [Example 5]
- EC50 ([2]; Renilla, NL43, 120 h): 0.466 µM

Compound: Cc1nc(C)c([C@H](OC(C)(C)C)C(=O)O)c2c1-c1ccc(cc1)OC(c1ccc(Cl)cc1)CCCCOC1(C)CCN2CC1 (single isomer, unassigned) [Example 6]
- EC50 [2]: 0.496 µM

Compound: Cc1cc(CN2CCCCCCOC3(C)CCN(CC3)c3c(c(C)nc(C)c3[C@H](OC(C)(C)C)C(=O)O)-c3ccc(cc3)C2)ccc1F [Example 1, (2S)-2-(tert-Butoxy)-2-{13-[(4-fluoro-3-methylphenyl)methyl]-4,6,21-trimethyl-20-oxa-1,5,13-triazatetracyclo[19.2.2.2^8,11.0^2,7]heptacosa-2,4,6,8,10,26-hexaen-3-yl}acetic acid]
- ring closure, yield of all isomers ([1]; from C=CCCCN(Cc1ccc(-c2c(C)nc(C)c([C@H](OC(C)(C)C)C(=O)OCC)c2N2CCC(C)(OCC=C)CC2)cc1)Cc1ccc(F)c(C)c1, 70.0 °C, 0.83 h): 58.9%
- EC50 ([2]; Renilla, NL43, 120 h): 0.087 µM

Compound: Cc1cc(CN2CCCCCOC3(C)CCN(CC3)c3c(c(C)nc(C)c3[C@H](OC(C)(C)C)C(=O)O)-c3ccc(cc3)C2)ccc1F [Example 2, (2S)-2-(tert-Butoxy)-2-{13-[(4-fluoro-3-methylphenyl)methyl]-4,6,20-trimethyl-19-oxa-1,5,13-triazatetracyclo[18.2.2.2^8,11.0^2,7]hexacosa-2,4,6,8,10,25-hexaen-3-yl}acetic acid]
- ring closure, yield of all isomers ([1]; from C=CCOC1(C)CCN(c2c(-c3ccc(CN(CC/C=C\CC)Cc4ccc(F)c(C)c4)cc3)c(C)nc(C)c2[C@H](OC(C)(C)C)C(=O)OCC)CC1, 4.35 mM, 75.0 °C, 1.33 h): 17.2%
- EC50 ([2]; Renilla, NL43, 120 h): 0.249 µM
